These results are taken from patent US20240197869A1, “HYPERACTIVATORS OF MAMMALIAN DENDRITIC CELLS” (Corner Therapeutics, Inc., priority 2021, published 2024).

Series [1] has as its system human monocyte-derived dendritic cells (moDCs). Briefly: DAMP screen: IL-1β secretion by LPS-activated human moDCs (ELISA). Format: cell-based. On the procedure: Danger-Associated Molecular Pattern (DAMP) Screen.
(§1) Quantification of IL-1beta Secretion. IL-1beta secretion was assessed using the ELISA MAX Deluxe Set Human IL-1beta kit (Biolegend). ELISAs were performed according to manufacturer's instructions with the following modifications: i) total sample volume for incubation was reduced from […] the top standard was prepared at […], with two-fold dilutions to […]; and iii) sample incubation was completed overnight at 4 C on an orbital shaker. […] To determine IL-1beta concentration in supernatants, sample IL-1beta concentrations were interpolated using a standard curve via 4PL analysis on GraphPad Prism 9 (GraphPad Software). The interpolated results of samples were then adjusted for any dilutions made to the supernatant.
In general terms: ELISA stands for enzyme-linked immunosorbent assay.

Series [2] shares this test system. Kind of series: DAMP screen: viability of human moDCs (CellTiter-Glo). (In general: Cellular ATP, detected with luciferase, serves as a proxy for viable cell number.)
Description: Danger-Associated Molecular Pattern (DAMP) Screen. After 6 days of differentiation into moDC, cells were collected and counted. Cells were plated at 100,000 cells/well in R10 media in 96-well flat bottom tissue culture-treated plates. LPS, serotype O55:B5 (Enzo Life Sciences) was added to a final concentration of 1 μg/mL in each well. […] Cells were incubated at 37° C., 5% CO2 for two days. Cell cultures were then used for endpoint analyses.
Endpoint Analyses. After culturing moDCs with PAMPs and DAMPs for two days, supernatant and cell samples were collected for analysis.
Quantification of Cell Viability. Cell viability was assessed by quantifying the presence of ATP as an indicator of metabolically active cells using the CellTiter-Glo Luminescent Cell Viability Assay (Promega). Metabolic activity was assessed following manufacturer's instructions. The CellTiter-Glo reagent was mixed with the cell pellets and remaining supernatant, and transferred to a white, opaque 96-well plate. Luminescence was measured on all wavelengths on a Spectramax iD3 plate reader (Molecular Devices) using an integration time of 500 ms. Percent viability was calculated relative to the control condition of moDCs treated with LPS.
The test system is the same in series [3]. Kind of series: Lipid titration: IL-1β secretion by LPS-activated human moDCs. Format: cell-based. On the procedure:
as §1

For series [4] the test system is unchanged. Briefly: Lipid titration: viability of human moDCs (CellTiter-Glo). The conditions noted are these: 10.3 μM lipid + LPS 1 μg/mL, 2 days; relative to LPS-treated moDCs; Table 1-5.
Setting [5] is: 41.3 μM lipid + LPS 1 μg/mL, 2 days, Table 1-2.
Where [6] appears, read: 41.3 μM lipid + LPS 1 μg/mL, 2 days, relative to LPS-treated moDCs, Table 1-2.
Setting [7] is: 82.5 μM lipid + LPS 1 μg/mL, 2 days, relative to LPS-treated moDCs, Table 1-1.
Setting [8] is: 10.3 μM lipid + LPS 1 μg/mL, 2 days, Table 1-5.
Where [9] appears, read: 20.6 μM lipid + LPS, human moDCs, 4 donors, mean (SD in wrapped line below).
The mark [10] stands for this setting: 82.5 μM lipid + LPS, selected lipids, Table 1-3 (repeats Table 1-1).

As to `CCCCCCCCCCCCCCCC(=O)O[C@H](CO)COP(=O)([O-])OCC[N+](C)(C)C` [2-16:0 LYSO PC, 1-hydroxy-2-palmitoyl-sn-glycero-3-phosphocholine], the IL-1β secretion in series [1] (setting [5]) was determined as 93.0 pg/mL. The “Relative Viability (%) ± SD” value in series [2] (setting [6]) is 87.2%; in series [2] (setting [7]) it was 43.9%.

`CCCCCCCCCCCCCCCCCC(=O)O[C@H](CO)COP(=O)([O-])OCC[N+](C)(C)C` [2-18:0 LYSO PC, 2-stearoyl-sn-glycero-3-phosphocholine]: the IL-1β secretion in series [1] (setting [5]) was found to be 225.0 pg/mL. In addition, the “Relative Viability (%) ± SD” value was 65.3% in series [2] (setting [6]) and 11.5% in series [2] (setting [7]).

In the case of `CCCCCCCC/C=C\CCCCCCCC(=O)O[C@H](CO)COP(=O)([O-])OCC[N+](C)(C)C` [2-18:1 Δ9 LYSO PC, 1-hydroxy-2-oleoyl-sn-glycero-3-phosphocholine], the IL-1β secretion in series [1] (setting [5]) was 45.0 pg/mL. For the same compound, the “Relative Viability (%) ± SD” value was determined as 100.6% in series [2] (setting [6]) and 97.7% in series [2] (setting [7]).

For the compound `CCCCCC(=O)OC[C@@H](O)COP(=O)([O-])OCC[N+](C)(C)C` [06:0 LYSO PC], the IL-1β secretion in series [1] (setting [5]) is 48.2 pg/mL. Further, the “Relative Viability (%) ± SD” value in series [2] (setting [6]) worked out at 96.1%; in series [2] (setting [7]) it was 92.8%.

Consider `CCCCCCC(=O)OC[C@@H](O)COP(=O)([O-])OCC[N+](C)(C)C` [07:0 LYSO PC], for which the IL-1β secretion in series [1] (setting [5]) was 36.0 pg/mL. In addition, the “Relative Viability (%) ± SD” value in series [2] (setting [6]) worked out at 97.9%; in series [2] (setting [7]), 93.9%.

On to `CCCCCCCC(=O)OC[C@@H](O)COP(=O)([O-])OCC[N+](C)(C)C` [08:0 LYSO PC], for which the IL-1β secretion in series [1] (setting [5]) worked out at 32.2 pg/mL. For the same compound, the “Relative Viability (%) ± SD” value in series [2] (setting [6]) is listed as 96.7%; in series [2] (setting [7]) it was 95.3%.

On to `CCCCCCCCC(=O)OC[C@@H](O)COP(=O)([O-])OCC[N+](C)(C)C` [09:0 LYSO PC], for which the IL-1β secretion in series [1] (setting [5]) is given as 31.3 pg/mL. Further, the “Relative Viability (%) ± SD” value stood at 98.2% in series [2] (setting [6]) and 95.4% in series [2] (setting [7]).

Regarding `CCCCCCCCCCC(=O)OC[C@@H](O)COP(=O)([O-])OCC[N+](C)(C)C` [11:0 LYSO PC], the IL-1β secretion in series [1] (setting [5]) worked out at 39.3 pg/mL. In addition, the “Relative Viability (%) ± SD” value in series [2] (setting [6]) was 94.9%; in series [2] (setting [7]), 92.8%.

Regarding `CCCCCCCCCCCC(=O)OC[C@@H](O)COP(=O)([O-])OCC[N+](C)(C)C` [12:0 LYSO PC], the IL-1β secretion in series [3] (setting [8]) was 43.1 pg/mL; in series [3] (setting [9]), 44.2 pg/mL; in series [1] (setting [5]) it was 54.5 pg/mL; in series [1] (setting [10]) it was 115.3 pg/mL. Moreover, the “Relative Viability (%) ± SD” value in series [4] was 97.3%; in series [2] (setting [6]), 96.6%; in series [2] (setting [7]), 91.1%; in series [2] (setting [10]) it was 91.1%.

As to `CCCCCCCCCCCCC(=O)OC[C@@H](O)COP(=O)([O-])OCC[N+](C)(C)C` [13:0 LYSO PC, 1-tridecanoyl-2-hydroxy-sn-glycero-3-phosphocholine], the IL-1β secretion in series [1] (setting [5]) worked out at 80.7 pg/mL. Also, the entries for the “Relative Viability (%) ± SD” value in series [2] (setting [6]) and in series [2] (setting [7]) were 93.9% and 93.2%, respectively.

As to `CCCCCCCCCCCCCCCC(=O)O[C@H](COC(=O)CCCCCCCCCCCCC)COP(=O)([O-])OCC[N+](C)(C)C` [14:0-16:0 PC], in series [1] (setting [5]), the IL-1β secretion amounted to 32.7 pg/mL. The “Relative Viability (%) ± SD” value is 97.1% in series [2] (setting [6]) and 90.8% in series [2] (setting [7]).

Take `CCCCCCCCCCCCCCCCCC(=O)O[C@H](COC(=O)CCCCCCCCCCCCC)COP(=O)([O-])OCC[N+](C)(C)C` [14:0-18:0 PC]: the IL-1β secretion in series [1] (setting [5]) amounted to 24.0 pg/mL. In addition, the results for the “Relative Viability (%) ± SD” value in series [2] (setting [6]) and in series [2] (setting [7]) were 100.0% and 90.5%, respectively.

On to `CCCCCCCCCCCCCCC(=O)OC[C@@H](O)COP(=O)([O-])OCC[N+](C)(C)C` [15:0 LYSO PC, 1-pentadecanoyl-2-hydroxy-sn-glycero-3-phosphocholine], for which, in series [1] (setting [5]), the IL-1β secretion was 150.3 pg/mL. Besides, the entries for the “Relative Viability (%) ± SD” value in series [2] (setting [6]) and in series [2] (setting [7]) were 90.8% and 65.4%, respectively.

`CCCCCCCCCCCCCCCC(=O)OC[C@@H](O)COP(=O)([O-])OCC[N+](C)(C)C` [16:0 LYSO PC, 1-palmitoyl-2-hydroxy-sn-glycero-3-phosphocholine]: the IL-1β secretion in series [1] (setting [5]) is 97.4 pg/mL. In addition, the “Relative Viability (%) ± SD” value turned out to be 87.2% in series [2] (setting [6]) and 44.7% in series [2] (setting [7]).

As to `CCCCCCCCCCCCCCCC(=O)OC[C@H](COP(=O)([O-])OCC[N+](C)(C)C)OC(=O)CCCCCCCCCCCCC` [16:0-14:0 PC], the IL-1β secretion in series [1] (setting [5]) was determined as 42.2 pg/mL. Further, the “Relative Viability (%) ± SD” value is 101.0% in series [2] (setting [6]) and 87.4% in series [2] (setting [7]).

In the case of `CCCCCCCCCCCCCCCCCC(=O)O[C@H](COC(=O)CCCCCCCCCCCCCCC)COP(=O)([O-])OCC[N+](C)(C)C` [16:0-18:0 PC], in series [1] (setting [5]), the IL-1β secretion is on record as 26.3 pg/mL. For the same compound, the “Relative Viability (%) ± SD” value in series [2] (setting [6]) was 97.7%; in series [2] (setting [7]) it was 88.8%.

Regarding `CCCCCCCC/C=C\CCCCCCCC(=O)O[C@H](COC(=O)CCCCCCCCCCCCCCC)COP(=O)([O-])OCC[N+](C)(C)C` [16:0-18:1 PC (POPC)], in series [1] (setting [5]), the IL-1β secretion turned out to be 28.2 pg/mL. The “Relative Viability (%) ± SD” value in series [2] (setting [6]) turned out to be 96.5%; in series [2] (setting [7]) it was 92.9%.

On to `CCCCCCCCCCCCCCCC(=O)OC[C@H](COP(=O)([O-])OCC[N+](C)(C)C)OC(=O)CCCCCCCCCCC(CCCCCC)OC(=O)CCCCCCCCCCCCCCC` (stereo partly drawn) [16:0-(12-PAHSA) PC], for which, in series [1] (setting [5]), the IL-1β secretion was 37.0 pg/mL. Further, the “Relative Viability (%) ± SD” value in series [2] (setting [6]) is 98.3%; in series [2] (setting [7]) it was 96.9%.

`CCCCCC/C=C\CCCCCCCCC(=O)OC[C@@H](O)COP(=O)([O-])OCC[N+](C)(C)C` [17:1 Δ^10 LYSO PC, 1-(10Z-heptadecenoyl)-2-hydroxy-sn-glycero-3-phosphocholine]: the IL-1β secretion in series [1] (setting [5]) amounted to 42.7 pg/mL. Also, the “Relative Viability (%) ± SD” value in series [2] (setting [6]) is recorded as 97.2%; in series [2] (setting [7]), 95.3%.

As for `CCCCCCCCCCCCCCCCCC(=O)OC[C@H](COP(=O)([O-])OCC[N+](C)(C)C)OC(=O)CCCCCCCCCCCCC` [18:0-14:0 PC], the IL-1β secretion in series [1] (setting [5]) is 31.2 pg/mL. The “Relative Viability (%) ± SD” value was 98.1% in series [2] (setting [6]) and 86.1% in series [2] (setting [7]).

As for `CCCCCCCCCCCCCCCCCC(=O)OC[C@H](COP(=O)([O-])OCC[N+](C)(C)C)OC(=O)CCCCCCCCCCCCCCC` [18:0-16:0 PC], in series [1] (setting [5]), the IL-1β secretion was determined as 20.1 pg/mL. Moreover, the entries for the “Relative Viability (%) ± SD” value in series [2] (setting [6]) and in series [2] (setting [7]) were 100.3% and 85.3%, respectively.

In the case of `CCCCCCCC/C=C\CCCCCCCC(=O)OC[C@@H](O)COP(=O)([O-])OCC[N+](C)(C)C` [18:1 Δ^9 LYSO PC], the IL-1β secretion in series [1] (setting [5]) worked out at 34.8 pg/mL. The “Relative Viability (%) ± SD” value in series [2] (setting [6]) was 97.8%; in series [2] (setting [7]) it was 91.5%.

For `CCCCCCCCCCCCCCCCCCC(=O)OC[C@@H](O)COP(=O)([O-])OCC[N+](C)(C)C` [19:0 LYSO PC, 1-nonadecanoyl-2-hydroxy-sn-glycero-3-phosphocholine], the IL-1β secretion in series [3] (setting [8]) was 43.0 pg/mL; in series [3] (setting [9]), 55.6 pg/mL; in series [1] (setting [5]) it was 468.9 pg/mL; in series [1] (setting [10]) it was 209.3 pg/mL. Also, the “lipid activity index, ranking in words” value in series [3] (lipid 1.3-82.5 μM + LPS) is “followed by 19:0 Lyso PC”. The “Activity Units (AU) ± SD (lipid activity index)” value in series [3] (reciprocal of lowest concentration giving IL-1β two-fold over LPS x highest IL-1β signal, lipid 1.3-82.5 μM + LPS) is 6.34 ± 3.39 AU. Also, the “Relative Viability (%) ± SD” value is reported as 96.4% in series [4], 39.4% in series [2] (setting [6]), 2.7% in series [2] (setting [7]) and 2.7% in series [2] (setting [10]).

With `CCCCCCCCCCCCCCCCCCCC(=O)OC[C@@H](O)COP(=O)([O-])OCC[N+](C)(C)C` [20:0 LYSO PC, 1-arachidoyl-2-hydroxy-sn-glycero-3-phosphocholine], the IL-1β secretion in series [1] (setting [5]) is on record as 168.7 pg/mL. Also, the figures for the “Relative Viability (%) ± SD” value in series [2] (setting [6]) and in series [2] (setting [7]) were 75.2% and 6.0%, respectively.

Regarding `CCCCCCCCCCCCCCCCCCCCCCCCCC(=O)OC[C@@H](O)COP(=O)([O-])OCC[N+](C)(C)C` [26:0 LYSO PC], in series [1] (setting [5]), the IL-1β secretion is 43.1 pg/mL. Besides, the “Relative Viability (%) ± SD” value in series [2] (setting [6]) is recorded as 93.3%; in series [2] (setting [7]), 94.7%.
